Like-named read-outs stand apart in the source and are kept apart here.
Assays:
[1] = target: T1, purified recombinant HIV RT (Human immunodeficiency virus type 1 group M subtype B, UniProt P04585); assay: Purified recombinant HIV RT inhibition, cell-free Quan-T-RT scintillation proximity assay; assay type: biochemical
T1 construct: against purified recombinant HIV RT using the cell-free Quan-T-RT system
Description: In the assay, a DNA/RNA template is bound to SPA beads via a biotin/strepavidin linkage. The primer DNA is a 16-mer oligo(T) which has been annealed to a poly(A) template. The primer/template is bound to a strepavidin-coated SPA bead.
^3H-TTP is incorporated into the primer by reverse transcription. […] The compound being tested was added to the reaction mixture at 0.001 μM-100 μM concentrations. […] The reaction was stopped by addition of 0.2 ml of 120 mM EDTA. The samples were counted in an open window using a Beckman LS 7600 instrument and IC50 values were calculated by comparing the measurements to untreated samples.

[2] = Microculture tetrazolium Assay (MTA, XTT) for cytotoxicity; assay type: cell-based, human; settings: human, PBMC; Table 1; cytotoxicity, MTA
[3] = tested on: NNI-resistant HIV-1 strain A17 with a Y181C mutation; assay: microbe, parasite or virus in culture; assay type: cell-based; settings: for IC50: read-out: IC50 A17 (Y181C)
Description: (§1) Normal human peripheral blood mononuclear cells (PBMNC) from HIV-negative donors were cultured 72 hours in RPMI 1640 supplemented with 20% (v/v) heat-inactivated fetal bovine serum (FBS), 3% interleukin-2,2 mM L-glutairine, 25 mM HEPES, 2 μL, NAHCO, […] gentamicin, and 4 μg/mL phytohemagglutinin prior to exposure to HIV-1 or other HIV strain at a multiplicity of infection (MOI) of 0.1 during a one-hour adsorption period at 37° C. in a humidified 5% CO2 atmosphere. Subsequently, cells were cultured in 96-well microplates (100 μL/well; 2×10^6 cells/mL, triplicate wells) in the presence of various inhibitor concentrations. Aliquots of culture supernatants were removed from the wells on the 7th day after infection for p24 antigen p24 enzyme immunoassays (EIA), as previously described in Erice et al., 1993, Antimicrob. Ag. Chemotherapy 37:385-838. The applied p24 EIA was the unmodified kinetic assay commercially available from Coulter Corporation/Immunotech, Inc. (Westbrook, Me.).
(§2) Percent inhibition of viral replication was calculated by comparing the p24 values from the test substance-treated infected cells with p24 values from untreated infected cells (i.e, virus controls).

[4] = tested on: multidrug resistant HIV-1 strain RT-MDR with a V106A mutation; assay: microbe, parasite or virus in culture; assay type: cell-based
Description: as §1, §2

[5] = tested on: HIV-1 strain HTLVIIIB; assay: Inhibition of HIV-1 HTLVIIIB replication in PBMC (p24 antigen EIA); assay type: cell-based
Description: The HIV strain HTLVIIIB was kindly provided by Dr. Neal T.Wetherall, VIROMED Laboratories, Inc., and was propagated in CCRF-CEM cells.
Subsequently, cells were cultured in 96-well microplates (100 μL/well; 2×10^6 cells/mL, triplicate wells) in the presence of various inhibitor concentrations. […] Ag. […] The applied p24 EIA was the unmodified kinetic assay commercially available from Coulter Corporation/Immunotech, Inc. (Westbrook, Me.).
as §2

[6] = tested on: PBMC; assay: Microculture tetrazolium Assay (MTA, XTT) for cytotoxicity; assay type: cell-based, human
[7] = Table 1, recombinant HIV RT, read-out: IC50 rRT
[8] = Table 2, recombinant HIV reverse transcriptase, read-out: IC50 rRT
[9] = Human immunodeficiency virus 1, PBMC
[10] = Human immunodeficiency virus 1, PBMC, read-out: IC50 RT-MDR
[11] = Human immunodeficiency virus 1, PBMC, Table 2, wild-type HIV-1, read-out: IC50 p24
[12] = Human immunodeficiency virus 1, Table 1, p24 production in PBMC, read-out: IC50 HTLV mB
[13] = read-out: IC50 rRT, Table 2, recombinant HIV reverse transcriptase
[14] = Human immunodeficiency virus 1, PBMC, read-out: IC50 HTLV mB

S=C(NCCc1ccccc1)Nc1ccc(Br)cn1 [HI-275, N-[2-(5-Bromopyridinyl)]-N′-[2-(Phenethyl)] thiourea]
IC50 [1, 7]: 1300 nM

Fc1ccc(CCNC(=S)Nc2ccc(Br)cn2)cc1 [HI-242, N-[2-(4-fluorophenethyl)]-N′-[2-(5-bromopyridyl)]thiourea]
IC50 [1, 7]: 6400 nM
IC50 [1, 8]: 6400 nM

S=C(NCCc1ccc(Br)cc1)Nc1ccc(Br)cn1 [HI-243, N-[2-(4-bromophenethyl)]-N′-[2-(5-bromopyridyl)]thiourea]
CC50 [2]: > 100 µM
melting point: 184 to 185 °C
IC50 [3, 9]: 1000 nM
IC50 [4, 10]: > 1 nM
IC50 [5, 11]: 70 nM
IC50 [5, 12]: 70 nM
IC50 [1]: 900 nM

O=[N+]([O-])c1ccc(CCNC(=S)Nc2ccc(Br)cn2)cc1 [HI-231]
IC50 [1, 7]: > 100000 nM
IC50 [1, 8]: > 100000 nM

S=C(NCCc1ccccn1)Nc1ccc(Br)cn1 [Trovirdine, reference compound]
CC50 ([6]; Table 1, cytotoxicity, MTA): > 100 µM
IC50 ([3]; Table 1, p24 production in PBMC): 500 nM
times less potent than HI-244 ([4]; RT-MDR strain): 20 times
IC50 ([4]; Table 1, p24 production in PBMC, read-out: IC50 RT-MDR (Y106A)): 20 nM
IC50 ([5]; Table 1, p24 production in PBMC, read-out: IC50 HTLV mB): 7 nM
IC50 ([5]; Table 2, wild-type HIV-1, read-out: IC50 p24): 7 nM

COc1ccc(CCNC(=S)Nc2ccc(Br)cn2)cc1 [HI-238, N-[2-(4-methoxyphenethyl)]-N′-[2-(5-bromopyridyl)]thiourea]
CC50 [2]: > 100 µM
melting point: 178 to 179 °C
IC50 [5, 11]: 15 nM
IC50 [5, 12]: 15 nM
IC50 [1]: 900 nM
IC50 [1, 13]: 900 nM

Cc1ccc(CCNC(=S)Nc2ccc(Br)cn2)cc1 [HI-244, N-[2-(4-methylphenethyl)]-N′-[2-(5-bromopyridyl)]thiourea]
CC50 [2]: 71 µM
cytotoxicity to PBMC ([6]; at a concentration): not cytotoxic
melting point: 159 to 162 °C
times more potent than trovirdine ([3]; A17 strain, Y181C): 7 times
IC50 [3, 9]: 70 nM
higher potency relative to trovirdine ([3]; NNI-resistant A17 strain (Y181C mutation)): 7 fold
resistance of mutant strain to compound ([3]; Y181C mutant strain (A17 strain)): 10 fold
selectivity index ([3]; against NNI-resistant Y181C mutant strain A17): > 1,000
IC50 [4, 10]: > 1 nM
times more effective than trovirdine ([4]; RT-MDR strain, V106A plus 74V, 41L, 215Y): 20 times
resistance of mutant strain to compound ([4]; V106A mutant strain (RT-MDR)): no resistance
selectivity index ([4]; against multidrug-resistant V106A mutant strain RT-MDR): > 71,000
IC50 [5, 14]: 7 nM
IC50 ([5]; Human immunodeficiency virus 1, PBMC, read-out: IC50 for inhibition of replication of HIV-1 strain HTLVIIIB in PBMC): 7 nM
IC50 ([5]; Human immunodeficiency virus 1, PBMC, read-out: IC50 p24): 7 nM
selectivity index ([5]; against wild-type HIV-1 strain HTLVIIIB): > 10,000
IC50 [1]: 100 nM

S=C(NCCc1ccc(Cl)cc1)Nc1ccc(Br)cn1 [HI-255, N-[2-(4-chlorophenethyl)]-N′-[2-(5-bromopyridyl)]thiourea]
melting point: 180 to 183 °C
IC50 [5, 12]: 20800 nM
IC50 [1]: 2500 nM
IC50 [1, 13]: 2500 nM

Oc1ccc(CCNC(=S)Nc2ccc(Br)cn2)cc1 [HI-256, N-[2-(4-hydroxyphenethyl)]-N′-[2-(5-bromopyridyl)]thiourea]
CC50 [2]: > 100 µM
IC50 [5, 14]: 3070 nM
IC50 [1]: 87700 nM

Source: patent publication US6586450B2, “Phenethyl-thiourea compounds and use” (Parker Hughes Institute, priority 1999, dated 2003)
